In patent EP4700025A1, “AMIDE COMPOUND, PHARMACEUTICAL COMPOSITION COMPRISING SAME, AND USE THEREOF” (Suzhou Genhouse Bio Co., Ltd., priority 2023, dated 2024):
pEC50, pIC50: −log10 of the molar value.

Legend:
PRMT5 = PRMT5 (Homo sapiens, UniProt O14744); assay: Inhibitory activity against enzymatic activity of PRMT5 (fluorescence polarization); type: biochemical; details: PRMT5 25 nM, SAM 1 µM, polypeptide 1 µM, MTA 2 µM; 37 °C 2 hours
Protocol: The compounds were prepared into 10 mM stock solutions using DMSO, and then 9 concentration gradients (with an initial concentration of 10 µM followed by 1:5 dilution) were prepared using a buffer (50 mM Tris-HCl pH 8.5, 5 mM MgCl2, 4 mM DTT, 0.01% Triton X-100, 0.1 M NaCl, 0.5% DMSO), and each well received 5 µL of the diluted compound solutions. SAM, a polypeptide, and MTA were prepared using a buffer to final concentrations of 1 µM, 1 µM, and 2 µM, respectively, and were added to each well in a total of 5 µL. Meanwhile, an MTA-free group was set as a control. […] Subsequently, a mixture of 2.5 µL of stop buffer A, 2.5 µL of an 8× MT assay mixture (final concentration: 1×), and 24 µg/mL AMP2/GMP2 antibodies (final concentration: 3 µg/mL) was added. The resulting mixture was incubated at room temperature for 1.5 hours, and fluorescence polarization (FP) was measured (Ex 633, Em 647). Meanwhile, negative control wells without protein (Blank) and positive control wells without compound (DMSO) were set. Each experiment was independently repeated three times.
Data processing: The numerical values of each group were recorded for statistical analysis, and the inhibition rate was calculated according to the following formula: inhibition percentage of compound wells (% inh) = [1 - (ave Blank - Cpd well)/(ave Blank - ave DMSO control)] × 100. Note: ave represents the average value, and Cpd represents the numerical value of the wells containing the compound. A sigmoidal dose-inhibition rate curve was plotted and fitted using a nonlinear regression model in the GraphPad Prism 7.0 software, and the IC50 value was calculated. Table 1. Inhibitory activity of compounds against enzymatic activity of PRMT5

HCT-116-MTAP^-/- = assay: CCK8 proliferation inhibition, HCT-116-MTAP^-/-; type: cell-based; details: Homo sapiens, 192 h; HCT-116-MTAP^-/- (MTAP-deficient); CCK8, 8 days after drug treatment
A549 = assay: CCK8 proliferation inhibition, A549; type: cell-based; details: Homo sapiens, 192 h, CCK8, 8 days after drug treatment
HCT-116-MTAP^-/- cells = assay: Pharmacodynamic study, HCT-116-MTAP^-/- subcutaneous xenograft; type: in vivo, mouse; details: HCT-116-MTAP^-/- xenograft
Protocol: (§1) Human colon cancer HCT-116-MTAP^-1- cells were cultured in monolayer in vitro using the McCoy 5A culture medium (HyClone) containing 10% fetal bovine serum (BI) and 1% penicillin and streptomycin (Beyotime) in an incubator at 37 °C with 5% CO2. The cells were digested with trypsin 2 to 3 times weekly for passaging. When the saturation degree of the cells was 80% to 90%, the cells were collected, counted, and inoculated. 5 × 10^6 (0.1 mL) HCT-116-MTAP^-/- cells were subcutaneously inoculated on the right back of each mouse. On about day 15 after inoculation of the cells, the mean tumor volume reached 172 mm^3. The mice were randomly grouped for administration (the animals were divided into an administration group and a control group, with 6 animals in each group). The day of grouping was designated as d0, and intragastric administration was started on d1. The administration was performed once daily at an administration volume of 10 mL/kg. Vehicle control was administered to the control group. The tumor volume was measured 2 to 3 times weekly, and meanwhile, the mice were weighed and the data were recorded; daily observations were made to record the body surface signs of the mice. After the experiment was completed, the tumors were collected, weighed, and photographed for recording.
(§2) Calculation formula for tumor volume: Tumor volume (mm^3) = 1/2 × (a×b^2) [formula] (note: a represents long diameter and b represents short diameter) [formula]

NCI-H838 cells = assay: Pharmacodynamic study, NCI-H838 subcutaneous xenograft; type: in vivo, mouse
Protocol: as §1, with “non-small cell lung” for “colon”, “NCI-H838” for “HCT-116-MTAP^-1-”, “NCI-H838” for “HCT-116-MTAP^-/-”, “29” for “15”, “156” for “172”
as §2

PRMT5, sequence (O14744 whole entry): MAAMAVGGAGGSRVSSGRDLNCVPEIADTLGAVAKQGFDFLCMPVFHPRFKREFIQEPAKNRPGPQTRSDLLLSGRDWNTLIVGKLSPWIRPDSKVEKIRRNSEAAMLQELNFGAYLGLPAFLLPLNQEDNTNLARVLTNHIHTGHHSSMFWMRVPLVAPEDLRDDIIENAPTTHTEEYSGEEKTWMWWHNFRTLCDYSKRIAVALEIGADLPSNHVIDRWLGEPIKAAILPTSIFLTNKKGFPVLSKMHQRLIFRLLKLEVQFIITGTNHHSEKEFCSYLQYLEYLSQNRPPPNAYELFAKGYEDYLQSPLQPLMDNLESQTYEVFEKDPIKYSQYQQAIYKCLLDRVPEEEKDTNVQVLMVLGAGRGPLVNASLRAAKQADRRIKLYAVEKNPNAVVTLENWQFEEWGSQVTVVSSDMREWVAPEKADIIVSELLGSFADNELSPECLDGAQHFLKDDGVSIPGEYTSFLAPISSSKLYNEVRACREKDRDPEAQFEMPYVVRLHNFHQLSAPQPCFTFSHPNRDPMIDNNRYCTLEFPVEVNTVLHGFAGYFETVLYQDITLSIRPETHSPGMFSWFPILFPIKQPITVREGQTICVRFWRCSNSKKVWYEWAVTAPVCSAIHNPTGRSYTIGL
PRMT5, sequence (Q9BQA1 whole entry partner): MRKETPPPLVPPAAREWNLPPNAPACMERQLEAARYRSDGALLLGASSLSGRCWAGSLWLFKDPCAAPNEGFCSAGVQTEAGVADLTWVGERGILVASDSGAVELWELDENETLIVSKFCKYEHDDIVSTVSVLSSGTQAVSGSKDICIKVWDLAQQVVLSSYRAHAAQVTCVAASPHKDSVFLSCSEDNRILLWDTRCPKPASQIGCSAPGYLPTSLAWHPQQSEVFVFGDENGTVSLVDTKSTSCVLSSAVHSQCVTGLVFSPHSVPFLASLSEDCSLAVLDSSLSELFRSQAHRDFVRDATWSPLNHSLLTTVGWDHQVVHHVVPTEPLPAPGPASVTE

Row | SMILES | pIC50 (PRMT5) | pEC50 (HCT-116-MTAP^-/-) | pEC50 (A549) | Day 28 TGI (HCT-116-MTAP^-/- cells; 10 mpk PO QD) [%] | Day 28 TGI (HCT-116-MTAP^-/- cells; 30 mpk PO QD) [%] | Day 31 TGI (NCI-H838 cells; 10 mpk PO QD) [%] | Day 31 TGI (NCI-H838 cells; 30 mpk PO QD) [%] | Day 31 TGI (NCI-H838 cells; 100 mpk PO QD) [%]
1 | Cn1ncc2c(N)nc3cc(F)c(C(=O)N4CCOC[C@@H]4c4ccc5c(c4)OC(F)(F)O5)cc3c21 [Example I-7] | 7.55 | 8.18 | 7.46 | 84 | 91 |  |  | 
2 | Cn1ncc2c(N)nc3cc(F)c(C(=O)N(Cc4ccc5c(c4)OC(F)(F)O5)C4CC4)cc3c21 [Example I-16] | 7.46 | 8.42 | 7.61 | 75 | 92 | 97 |  | 
3 | Cn1ncc2c(N)nc3cnc(C(=O)N4CCOC[C@@H]4c4ccc5c(c4)OC(F)(F)O5)cc3c21 [Example I-38] |  | 8.13 | 7.27 |  |  | 75 | 105 | 107
